Drawing on patent publication US20070299062A1 (The Procter & Gamble Company, priority 2006, published 2007), this text covers Ki for 22 compounds.

SMILES strings stand for the structures. Like-named read-outs stand apart in the source and are kept apart here.

One assay addresses MCH-1R (UniProt Q99705). Description: MCH-1R competition binding assay. The procedure:
In vitro binding and function assays are performed on membranes derived from cells or tissues expressing endogenous MCH1R. Competition binding assays are performed to identify high affinity compounds. Briefly, either radiolabeled or europium labeled MCH with varying concentrations of competitor compound which are incubated with membranes expressing the receptor. Rat brain membrane or cell lines, including but not limited to human Kelly neuroblastoma cells, A-431 epidermoid cells, and rat PC-12 cells are known to express endogenous MCH1R and are used in the assay. Binding is allowed to proceed until equilibrium is reached then bound labeled MCH is separated from free MCH by capturing membranes onto a filter. The filters are washed to remove loosely associated MCH and labeled MCH is quantified. Data is analyzed and IC50 and Ki are calculated to determine compound affinity.

For a further assay, the target named is T1, 5-HT2c receptor (Homo sapiens, UniProt P28335).
T1 construct: purchased Perkin-Elmer or Euroscreen (named only as possible suppliers)
T1 sequence (P28335 33-458): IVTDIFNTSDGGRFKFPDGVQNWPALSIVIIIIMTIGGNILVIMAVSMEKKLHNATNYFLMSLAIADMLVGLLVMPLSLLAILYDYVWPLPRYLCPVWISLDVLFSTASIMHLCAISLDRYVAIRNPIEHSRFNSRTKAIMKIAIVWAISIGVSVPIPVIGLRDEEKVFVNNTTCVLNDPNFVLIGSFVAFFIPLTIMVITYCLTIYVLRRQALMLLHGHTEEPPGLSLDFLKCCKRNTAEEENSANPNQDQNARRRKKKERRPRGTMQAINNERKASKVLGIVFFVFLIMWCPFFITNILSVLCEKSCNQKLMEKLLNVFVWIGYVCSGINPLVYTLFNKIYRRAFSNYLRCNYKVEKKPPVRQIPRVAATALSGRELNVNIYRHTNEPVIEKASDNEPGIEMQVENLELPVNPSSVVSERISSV
Description: 5-HT2c receptor binding assay (3H-mesulergine competition). The procedure:
MCH antagonist compounds are evaluated for binding to the serotonin 5-HT2c receptor to determine receptor selectivity. Binding activity is assessed using a competitive assay with ^3H-mesulergine (Perkin Elmer), a 5-HT2c selective ligand, on membrane containing the 5-HT2c receptor. Briefly, 1 nM ^3H-mesulergine and varying concentrations of the compound are incubated with 5-HT2c receptor membranes, following an incubation period, the membranes are washed and ^3H-mesulergine bound to membranes is measured in a liquid scintillation counter. The amount of bound ^3H-mesulergine at the varying concentration of competitor compound is used to derive the affinity (Ki) of the compound for the 5-HT2c receptor. 5-HT2c receptor containing membranes are readily available from several companies including Perkin-Elmer and Euroscreen.

Where [1] appears, read: 1 nM 3H-mesulergine, read-out: Ki (nM) binding data 5-HT2C.

On to `CC(=O)N1CCN(Cc2ccc3c(c2)CC[C@H](n2cnc4cc(-c5ccc(Cl)c(Cl)c5)sc4c2=O)C3)CC1` [(S)-3-[6-(4-Acetylpiperazin-1-ymethyl)-1,2,3,4-tetrahydronapthalen-2-yl]-6-(3,4-dichlorophenyl)thieno[3,2-d]pyrimidin-4(3H)-one], for which the Ki (as a rule, the equilibrium dissociation constant of an inhibitor or competing ligand from its target) at MCH-1R was 54.5 nM; at 5-HT2c receptor (setting [1]), above 100000 nM.

Turning to `CC(=O)N1CCN(Cc2ccc3c(c2)CC[C@H](n2cnc4cc(-c5ccc(F)c(F)c5)sc4c2=O)C3)CC1` [(S)-3-[6-(4-Acetylpiperazin-1-ymethyl)-1,2,3,4-tetrahydronapthalen-2-yl]-6-(3,4-difluorophenyl)thieno[3,2-d]pyrimidin-4(3H)-one], the inhibitory constant (Ki) was 36.6 nM on MCH-1R and above 100000 nM at 5-HT2c receptor (setting [1]).

Regarding `CC(=O)N1CCN(Cc2ccc3c(c2)CC[C@H](n2cnc4cc(-c5cc(F)cc(F)c5)sc4c2=O)C3)CC1` [(S)-3-[6-(4-Acetylpiperazin-1-ymethyl)-1,2,3,4-tetrahydronapthalen-2-yl]-6-(3,5-difluorophenyl)thieno[3,2-d]pyrimidin-4(3H)-one], the inhibition constant Ki was 369 nM on MCH-1R and above 100000 nM at 5-HT2c receptor (setting [1]).

Regarding `CC(=O)N1CCN(Cc2ccc3c(c2)CC[C@H](n2cnc4cc(-c5cccc(F)c5)sc4c2=O)C3)CC1` [(S)-3-[6-(4-Acetylpiperazin-1-ymethyl)-1,2,3,4-tetrahydronapthalen-2-yl]-6-(3-fluorophenyl)thieno[3,2-d]pyrimidin-4-(3H)one], the inhibition constant (Ki) was 17.9 nM at MCH-1R and above 100000 nM on 5-HT2c receptor (setting [1]).

With `CC(=O)N1CCN(Cc2ccc3c(c2)CC[C@H](n2cnc4cc(-c5ccc(F)cc5)sc4c2=O)C3)CC1` [(S)-3-[6-(4-Acetylpiperazin-1-ymethyl)-1,2,3,4-tetrahydronapthalen-2-yl]-6-(4-fluorophenyl)thieno[3,2-d]pyrimidin-4(3H)-one], the Ki at MCH-1R turned out to be 9.4 nM; on 5-HT2c receptor (setting [1]) it was 6360 nM.

With `COc1ccc(-c2cc3ncn([C@H]4CCc5cc(CN6CCN(C(C)=O)CC6)ccc5C4)c(=O)c3s2)cc1` [(S)-3-[6-(4-Acetylpiperazin-1-ymethyl)-1,2,3,4-tetrahydronapthalen-2-yl]-6-(4-methoxyphenyl)thieno[3,2-d]pyrimidin-4(3H)-one], the figures for the Ki at MCH-1R and on 5-HT2c receptor (setting [1]) were 65.2 nM and above 100000 nM, respectively.

`CC(=O)N1CCN(Cc2ccc3c(c2)CC[C@H](n2cnc4cc(-c5ccc(C)cc5)sc4c2=O)C3)CC1` [(S)-3-[6-(4-Acetylpiperazin-1-ymethyl)-1,2,3,4-tetrahydronapthalen-2-yl]-6-(4-methylphenyl)thieno[3,2-d]pyrimidin-4(3H)-one]: the Ki at MCH-1R turned out to be 16.1 nM; at 5-HT2c receptor (setting [1]), 5460 nM.

In the case of `CC(=O)N1CCN(Cc2ccc3c(c2)CC[C@H](n2cnc4cc(-c5cncc(Cl)c5)sc4c2=O)C3)CC1` [(S)-3-[6-(4-Acetylpiperazin-1-ymethyl)-1,2,3,4-tetrahydronapthalen-2-yl]-6-(5-chloropyridin-3-yl)thieno[3,2-d]pyrimidin-4(3H)-one], the figures for the Ki on MCH-1R and on 5-HT2c receptor (setting [1]) were 38 nM and above 100000 nM, respectively.

In the case of `CC(=O)N1CCN(Cc2ccc3c(c2)CC[C@H](n2cnc4cc(-c5cncc(F)c5)sc4c2=O)C3)CC1` [(S)-3-[6-(4-Acetylpiperazin-1-ymethyl)-1,2,3,4-tetrahydronapthalen-2-yl]-6-(5-fluoropyridin-3-yl)thieno[3,2-d]pyrimidin-4(3H)-one], the inhibition constant (Ki) is 97 nM on MCH-1R and above 100000 nM on 5-HT2c receptor (setting [1]).

`CC(=O)N1CCN(Cc2ccc3c(c2)CC[C@H](n2cnc4cc(-c5cccnc5)sc4c2=O)C3)CC1` [(S)-3-[6-(4-Acetylpiperazin-1-ymethyl)-1,2,3,4-tetrahydronapthalen-2-yl]-6-(pyridin-3-yl)thieno[3,2-d]pyrimidin-4(3H)-one]: the inhibitory constant (Ki) at MCH-1R is 1930 nM; at 5-HT2c receptor (setting [1]), above 100000 nM.

Take `CC(=O)N1CCN(Cc2ccc3c(c2)CC[C@H](n2cnc4cc(-c5ccncc5)sc4c2=O)C3)CC1` [(S)-3-[6-(4-Acetylpiperazin-1-ymethyl)-1,2,3,4-tetrahydronapthalen-2-yl]-6-(pyridin-4-yl)thieno[3,2-d]pyrimidin-4(3H)-one]: the results for the Ki at MCH-1R and at 5-HT2c receptor (setting [1]) were 988 nM and 8090 nM, respectively.

For the compound `CC(=O)N1CCN(Cc2ccc3c(c2)CC[C@H](n2cnc4cc(-c5cccs5)sc4c2=O)C3)CC1` [(S)-3-[6-(4-Acetylpiperazin-1-ymethyl)-1,2,3,4-tetrahydronapthalen-2-yl]-6-(thien-2-yl)thieno[3,2-d]pyrimidin-4(3H)-one], the values for the inhibitory constant (Ki) at MCH-1R and at 5-HT2c receptor (setting [1]) were 270 nM and 1760 nM, respectively.

Regarding `CC(=O)N1CCN(Cc2ccc3c(c2)CC[C@H](n2cnc4cc(-c5ccsc5)sc4c2=O)C3)CC1` [(S)-3-[6-(4-Acetylpiperazin-1-ymethyl)-1,2,3,4-tetrahydronapthalen-2-yl]-6-(thien-3-yl)thieno[3,2-d]pyrimidin-4(3H)-one], the Ki on MCH-1R was 137 nM; on 5-HT2c receptor (setting [1]), 2010 nM.

Turning to `CC(=O)N1CCN(Cc2ccc3c(c2)CC[C@H](n2cnc4cc(-c5cccc(Cl)c5)sc4c2=O)C3)CC1` [(S)-3-[6-(4-Acetylpiperazin-l-ymethyl)-1,2,3,4-tetrahydronapthalen-2-yl]-6-(3-chlorophenyl)thieno[3,2-d]pyrimidin-4(3H)-one], the inhibitory constant (Ki) is 70.5 nM on MCH-1R and above 100000 nM at 5-HT2c receptor (setting [1]).

As for `CC(=O)N1CCN(Cc2ccc3c(c2)CC[C@H](n2cnc4cc(-c5ccc(C#N)cc5)sc4c2=O)C3)CC1` [(S)-4-(3-(6-((4-acetylpiperazin-1-yl)methyl)-1,2,3,4-tetrahy] [(S)-4-(3-(6-((4-acetylpiperazin-1-yl)methyl)-1,2,3,4-tetrahydronaphthalen-2-yl)-4-oxo-3,4-dihydrothieno[3,2-d]pyrimidin-6-yl)benzonitrile], the inhibition constant Ki at MCH-1R is 397 nM; on 5-HT2c receptor (setting [1]), above 100000 nM.

As for `CS(=O)(=O)N1CCN(Cc2ccc3c(c2)CC[C@H](n2cnc4cc(-c5ccc(Cl)cc5)sc4c2=O)C3)CC1` [(S)-6-(4-Chlorophenyl)-3-(6-((4-methylsulfonyl)piperazin-1-yl)methyl)-1,2,3,4-tetrahydronapthalen-2-yl)thieno[3,2,-d]pyrimidin-4(3H)-one], the inhibitory constant (Ki) at MCH-1R was 65 nM; on 5-HT2c receptor (setting [1]) it was above 100000 nM.

As for `CCN(CC)Cc1ccc2c(c1)CC[C@H](n1cnc3cc(-c4ccc(Cl)cc4)sc3c1=O)C2` [(S)-6-(4-Chlorophenyl)-3-(6-diethylaminomethyl-1,2,3,4-tetrahydronaphthalen-2-yl)-4a,7a-dihydro-3H-thieno[3,2-d]pyrimidin-4-one], the Ki at MCH-1R was 13 nM; at 5-HT2c receptor, 6780 nM.

For `O=c1c2sc(-c3ccc(Cl)cc3)cc2ncn1[C@H]1CCc2cc(CN3CCCCC3)ccc2C1` [(S)-6-(4-Chlorophenyl)-3-(6-piperidin-1-ylmethyl-1,2,3,4-tetrahydronaphthalen-2-yl)thieno[3,2-d]pyrimidin-4(3H)-one], the inhibition constant Ki on MCH-1R stood at 24.3 nM; at 5-HT2c receptor (setting [1]), 3730 nM.

`O=c1c2sc(-c3ccc(Cl)cc3)cc2ncn1[C@H]1CCc2cc(CN3CCCC3)ccc2C1` [(S)-6-(4-Chlorophenyl)-3-(6-pyrrolidin-1-ylmethyl-1,2,3,4-tetrahydronaphthalen-2-yl)thieno[3,2-d]pyrimidin-4(3H)-one]: the Ki on MCH-1R is 13.7 nM; on 5-HT2c receptor (setting [1]), 3730 nM.

With `CN1CCN(C2CCN(Cc3ccc4c(c3)CC[C@H](n3cnc5cc(-c6ccc(Cl)cc6)sc5c3=O)C4)CC2)CC1` [(S)-6-(4-Chlorophenyl)-3-(6-{[4-(4-methylpiperazin-1-yl)piperidin-1-yl]methyl}-1,2,3,4-tetrahydronapthalen-2-yl)thieno[3,2-d]pyrimidin-4(3H)-one], the Ki on MCH-1R turned out to be 42 nM; at 5-HT2c receptor (setting [1]), 4790 nM.

Turning to `O=c1c2sc(-c3ccc(Cl)cc3)cc2ncn1[C@H]1CCc2cc(CN3CCS(=O)(=O)CC3)ccc2C1` [(S)-6-(4-Chlorophenyl)-3-[6-(1,1-dioxo-1λ^6-thiomorpholin-4-ylmethyl)-1,2,3,4-tetrahydronaphthalen-2-yl)thieno[3,2-d]pyrimidin-4(3H)-one], the Ki on MCH-1R was 1020 nM; at 5-HT2c receptor (setting [1]), above 100000 nM.

Turning to `CC(=O)N1CC2CC1CN2Cc1ccc2c(c1)CC[C@H](n1cnc3cc(-c4ccc(Cl)cc4)sc3c1=O)C2` (stereo partly drawn) [(S)-6-(4-Chlorophenyl)-3-[6-(5-acetyl-2,5-diaza-bicyclo[2.2.1]hept-2-ylmethyl)-1,2,3,4-tetrahydronaphthalen-2-yl)thieno[3,2-d]pyrimidin-4(3H)-one], the inhibitory constant (Ki) at MCH-1R is 1.8 nM; at 5-HT2c receptor (setting [1]) it was above 100000 nM.
